In the CheMixHub viscosity set:

Test: xn = mol fraction of the nth substance listed

CCCCCCCCCCCCN + C1CCCCC1
303.15 K, 101 kPa
Details	viscosity [mPa·s]
x2 = 0.2093	2.31
x2 = 0.3927	1.948
x2 = 0.5029	1.709
x2 = 0.6032	1.492
x2 = 0.8037	1.116

Cc1cccc(O)c1 + C1CCCCC1
308.15 K, 101 kPa
Details	viscosity [mPa·s]
x1 = 0.0832	0.8736
x1 = 0.289	1.288
x1 = 0.3627	1.541
x1 = 0.4467	1.863
x1 = 0.5201	2.175
x1 = 0.5859	2.547
x1 = 0.7213	3.745
x1 = 0.8473	5.244
x1 = 0.9032	6.428

ClC1CCCCC1 + C1CCCCC1
viscosity [mPa·s], 101.3 kPa
Details	x2 = 0.095	x2 = 0.2004	x2 = 0.2999	x2 = 0.3989	x2 = 0.4989	x2 = 0.5993	x2 = 0.6986	x2 = 0.8004	x2 = 0.9006
298.15 K	1.485	1.394	1.315	1.241	1.172	1.106	1.046	0.9893	0.9379
313.15 K	1.153	1.086	1.025	0.9696	0.9164	0.8667	0.821	0.7771	0.7392

ClC1CCCCC1 + C1CCOC1
viscosity [mPa·s], 101.3 kPa
Details	x2 = 0.1036	x2 = 0.2057	x2 = 0.3029	x2 = 0.4018	x2 = 0.5079	x2 = 0.6003	x2 = 0.7026	x2 = 0.8045	x2 = 0.9032
298.15 K	1.38	1.22	1.087	0.9655	0.8521	0.7631	0.6748	0.5979	0.5278
313.15 K	1.085	0.9721	0.8761	0.7866	0.7016	0.6344	0.5652	0.5038	0.4475

ClC1CCCCC1 + C1CCOCC1
viscosity [mPa·s], 101.3 kPa
Details	x2 = 0.1031	x2 = 0.2	x2 = 0.3037	x2 = 0.4038	x2 = 0.4996	x2 = 0.6036	x2 = 0.6992	x2 = 0.8038	x2 = 0.9034
298.15 K	1.459	1.364	1.27	1.188	1.114	1.04	0.9774	0.9135	0.8561
313.15 K	1.141	1.073	1.002	0.9418	0.8879	0.8332	0.7853	0.7364	0.6928

Cc1cccc(O)c1 + C1COCCO1
308.15 K, 101 kPa
Details	viscosity [mPa·s]
x2 = 0.1	6.346
x2 = 0.2	5.28
x2 = 0.3	4.391
x2 = 0.4	3.412
x2 = 0.5	2.693
x2 = 0.6	2.138
x2 = 0.7	1.711
x2 = 0.8	1.407
x2 = 0.9	1.235

CC(=O)c1ccc(C)cc1 + C=CC#N
308.15 K, 101 kPa
Details	viscosity [mPa·s]
x1 = 0.053	0.365
x1 = 0.1107	0.4026
x1 = 0.1749	0.4516
x1 = 0.2487	0.511
x1 = 0.3327	0.5909
x1 = 0.4237	0.684
x1 = 0.536	0.8136
x1 = 0.6679	0.9939
x1 = 0.8181	1.23

ClC1CCCCC1 + CC1CCCO1
viscosity [mPa·s], 101.3 kPa
Details	x2 = 0.0984	x2 = 0.1994	x2 = 0.2986	x2 = 0.4009	x2 = 0.4991	x2 = 0.5995	x2 = 0.701	x2 = 0.802	x2 = 0.8995
298.15 K	1.367	1.195	1.055	0.9325	0.8311	0.742	0.6638	0.5963	0.5378
313.15 K	1.075	0.9535	0.8519	0.7611	0.6848	0.6167	0.5561	0.5018	0.4546

C=Cn1cc[n+](CC(N)=O)c1.O=S(=O)([N-]S(=O)(=O)C(F)(F)F)C(F)(F)F + CC#N
viscosity [mPa·s], 100 kPa
Details	298.15 K	303.15 K	308.15 K	313.15 K	318.15 K	323.15 K
x1 = 0.1	–	9.97	9.16	8.17	7.74	7.02
x1 = 0.201	75.29	68.64	59.58	50.56	–	–
x1 = 0.3026	–	246.5	–	–	–	–
x1 = 0.4011	805.9	683.3	549.2	–	–	–

CC(=O)c1ccc(C)cc1 + CC#N
308.15 K, 101 kPa
Details	viscosity [mPa·s]
x1 = 0.0872	0.3857
x1 = 0.1449	0.4411
x1 = 0.2088	0.5094
x1 = 0.2823	0.5871
x1 = 0.3756	0.6989
x1 = 0.4771	0.826
x1 = 0.6125	1.001
x1 = 0.7811	1.235
x1 = 0.9146	1.454

COc1ccc2cc([C@H](C)C(=O)O)ccc2c1 + CC#N
101 kPa
Details	viscosity [mPa·s]
297.93 K, x1 = 0.000702	0.3571
297.96 K, x1 = 0.000233	0.3546
298.01 K, x1 = 0.001151	0.3583
298.04 K, x1 = 0.001587	0.3603
298.07 K, x1 = 0.002732	0.364
301.61 K, x1 = 0.001151	0.3461
301.69 K, x1 = 0.000233	0.3425
301.69 K, x1 = 0.001587	0.3476
301.7 K, x1 = 0.000702	0.344
301.75 K, x1 = 0.002732	0.351
303.56 K, x1 = 0.001151	0.3398
303.58 K, x1 = 0.002732	0.3453
303.65 K, x1 = 0.000233	0.3359
303.66 K, x1 = 0.001587	0.342
303.69 K, x1 = 0.000702	0.3371
305.66 K, x1 = 0.000233	0.3303
305.66 K, x1 = 0.001151	0.3329
305.7 K, x1 = 0.002732	0.3376
305.71 K, x1 = 0.000702	0.331
305.71 K, x1 = 0.001587	0.3347
308.62 K, x1 = 0.001151	0.324
308.64 K, x1 = 0.001587	0.3252
308.71 K, x1 = 0.000233	0.3206
308.75 K, x1 = 0.002732	0.3279
308.76 K, x1 = 0.000702	0.322
311.62 K, x1 = 0.001151	0.3149
311.63 K, x1 = 0.001587	0.3163
311.68 K, x1 = 0.002732	0.3191
311.69 K, x1 = 0.000233	0.3119
311.72 K, x1 = 0.000702	0.3132

C[N+](=O)[O-] + CC#N
101 kPa
Details	viscosity [mPa·s]
298.15 K, x1 = 0.107	0.3665
298.15 K, x1 = 0.206	0.389
298.15 K, x1 = 0.301	0.4121
298.15 K, x1 = 0.398	0.4366
298.15 K, x1 = 0.502	0.4646
298.15 K, x1 = 0.598	0.4917
298.15 K, x1 = 0.7	0.5223
298.15 K, x1 = 0.792	0.5508
298.15 K, x1 = 0.895	0.5844
298.15 K, x2 = 0.1433	0.569
298.15 K, x2 = 0.3891	0.495
298.15 K, x2 = 0.39	0.496
298.15 K, x2 = 0.403	0.492
298.15 K, x2 = 0.408	0.49
298.15 K, x2 = 0.598	0.439
298.15 K, x2 = 0.698	0.413
298.15 K, x2 = 0.729	0.405
298.15 K, x2 = 0.739	0.403
298.15 K, x2 = 0.776	0.395
298.15 K, x2 = 0.9346	0.359
308.15 K, x2 = 0.1433	0.52
308.15 K, x2 = 0.3891	0.454
308.15 K, x2 = 0.598	0.404
308.15 K, x2 = 0.776	0.364
308.15 K, x2 = 0.9346	0.333
313.15 K, x1 = 0.107	0.3169
313.15 K, x1 = 0.206	0.3355
313.15 K, x1 = 0.301	0.3546
313.15 K, x1 = 0.398	0.3751
313.15 K, x1 = 0.502	0.3985
313.15 K, x1 = 0.598	0.4211
313.15 K, x1 = 0.7	0.4465
313.15 K, x1 = 0.792	0.4697
313.15 K, x1 = 0.895	0.4974
318.15 K, x2 = 0.1433	0.469
318.15 K, x2 = 0.3891	0.411
318.15 K, x2 = 0.598	0.367
318.15 K, x2 = 0.776	0.333
318.15 K, x2 = 0.9346	0.305

CCCCC(CC)COP(=O)(O)OCC(CC)CCCC (stereo not given) + CC(=O)O
303.15 K, 101 kPa
Details	viscosity [mPa·s]
x1 = 0.0796	1.574
x1 = 0.1382	2.292
x1 = 0.2186	3.386
x1 = 0.3103	4.872
x1 = 0.3968	6.604
x1 = 0.4788	8.198
x1 = 0.5297	9.118
x1 = 0.6234	11.09
x1 = 0.6891	12.58
x1 = 0.7384	13.67
x1 = 0.8068	15.2
x1 = 0.8905	16.88
x1 = 0.9592	18.49

Cc1cccc(O)c1 + CC(=O)O
viscosity [mPa·s], 101 kPa
Details	x2 = 0.1684	x2 = 0.313	x2 = 0.4385	x2 = 0.5485	x2 = 0.6457	x2 = 0.7321	x2 = 0.8096	x2 = 0.8794	x2 = 0.9425
298.15 K	8.835	6.522	5.086	4.131	3.438	2.895	2.425	1.996	1.602
308.15 K	5.453	4.462	3.486	3.298	2.87	2.483	2.143	1.811	1.437
318.15 K	4.444	3.818	3.302	2.942	2.618	2.31	1.945	1.625	1.22

Cc1cccc(O)c1 + CC(=O)c1ccccc1
303.15 K, 101 kPa
Details	viscosity [mPa·s]
x2 = 0.139	8.438
x2 = 0.1802	8.063
x2 = 0.27	7.268
x2 = 0.4388	5.843
x2 = 0.4644	5.63
x2 = 0.5506	4.927
x2 = 0.7407	3.39
x2 = 0.8321	2.684
x2 = 0.9266	2

C[N+](=O)[O-] + CC(C)(C)O
viscosity [mPa·s], 101.33 kPa
Details	298.15 K	303.15 K	313.15 K
x2 = 0.05	0.609	0.569	0.511
x2 = 0.1002	0.611	0.567	0.506
x2 = 0.1502	0.642	0.573	0.508
x2 = 0.2	0.644	0.587	0.517
x2 = 0.2499	0.674	0.609	0.531
x2 = 0.3	0.749	0.638	0.549
x2 = 0.3503	0.793	0.672	0.573
x2 = 0.4	0.87	0.714	0.601
x2 = 0.4501	0.894	0.761	0.633
x2 = 0.5001	0.972	0.819	0.671
x2 = 0.55	1.072	0.886	0.717
x2 = 0.6001	1.154	0.962	0.811
x2 = 0.6499	1.219	1.057	0.829
x2 = 0.7	1.361	1.174	0.885
x2 = 0.75	1.557	1.32	0.966
x2 = 0.8	1.776	1.491	1.106
x2 = 0.85	2.079	1.72	1.244
x2 = 0.8999	2.51	2.05	1.442
x2 = 0.95	3.194	2.527	1.697

C[N+](=O)[O-] + CC(C)=O
298.15 K, 101 kPa
Details	viscosity [mPa·s]
x1 = 0.1326	0.356
x1 = 0.2566	0.3972
x1 = 0.3714	0.4352
x1 = 0.479	0.4701
x1 = 0.5797	0.5032
x1 = 0.6739	0.5325
x1 = 0.7631	0.5603
x1 = 0.8465	0.5855
x1 = 0.9257	0.6101
